The subject of data set [1] is glutamate, GABA, adenosine, glycine concentrations in cortex, hippocampus, brainstem. Kind of data set: Determination of neurotransmitters in brain structures (LC-MS/MS, HPLC-FLD). Type of data set: in vivo, mice. The method, then: Mice were administered with SSR504734 or saline acutely or repeatedly for 14 days and subjected to maximal electroshock seizures 60 min after treatment. Immediately following seizure induction, the animals were decapitated. Brains were removed from the skull and washed with ice-cold 0.9% NaCl. Cortex, hippocampus, and brainstem were isolated by microdissection and collected into Eppendorf tubes. Samples were frozen in liquid nitrogen and kept at −80 °C until the day of analysis.
Adenosine, GABA, and glutamate concentrations in mouse cortex, brainstem, and hippocampus were determined using an LC-MS/MS method. Stock solutions of GABA, adenosine, glutamate, and their internal standards (ISs), i.e., adenosine-13C5, GABA-d6, and glutamate-d5 (Toronto Research Chemicals Inc., Canada), were prepared using methanol for GABA and its IS and deionized water for adenosine, glutamate, and their ISs and stored at 4 °C. The stock solutions of GABA, adenosine, and glutamate were then appropriately diluted with acetonitrile/water 1:1 (v/v) solution to achieve various concentration levels required for the experiments. Brain tissue samples were homogenized using a Bead Ruptor Elite, bead mill homogenizer (Omni International, USA) with 90 μL of deionized water per 10 mg of tissue. The resulting homogenates were further diluted at 1:10 to 1:100 (v/v) ratios (depending on the expected analyte concentration) with acetonitrile/water 1:1 (v/v) solution. […] The supernatants were then placed in autosampler vials.
Analyte separation was performed on an Exion LC AC system (Sciex, USA) coupled with a QTRAP 4500 triple quadrupole MS instrument (Sciex, USA). A 0.2 to 2 μL aliquot of sample was injected via an autosampler maintained at 15 °C into an XBridge HILIC (Waters, Ireland) analytical column (2.1 × 150 mm, 3.5 μm) with the column oven set at 25 °C.
MS detection employed electrospray ionization (ESI) in positive ion mode. According to the results of flow-injection analysis, curtain gas was set at 30 psi, ion spray voltage at 5500 V, and the source temperature at 450 °C, with ion spray gases 1 and 2 at 50 and 40 psi, respectively.
Data acquisition and processing were conducted with Analyst version 1.7 software. The calibration curves were constructed by plotting the ratio of the peak areas of the target analytes to those of their respective ISs against the concentrations of the analytes. These curves were derived using a weighted linear regression analysis method (1/x). Due to the availability of stable isotope-labeled standards and the high endogenous concentrations of adenosine, glutamate, and GABA in the brain tissue, the calibrators were prepared in water.
Glycine concentrations in brain structures were analyzed by using high-performance liquid chromatography with fluorescence detection (HPLC-FLD). A stock solution of glycine (20 mg/mL) was prepared in water and diluted with the same solvent to prepare working standard solutions at the concentration range of 0.2–20 μg/mL. The homogenates were obtained as described above, and they were centrifuged before analysis for 5 min at 10,000 rpm (Eppendorf miniSpin centrifuge). To prepare samples for analysis, 2 μL (for brainstem) or 5 μL (for the remaining structures) of homogenate supernatants was transferred to Eppendorf tubes and diluted with water to 20 μL. […] The reaction mixture was vortexed for 15 s, spinned down to make sure that all the sample is at the bottom of the tube, and incubated for 3 min at room temperature in darkness. The aliquots of 5 μL were injected into the column. […] The EZChrom Elite Client/Server v. 3.2 software was used for data collection and analysis. […] The mobile phase consisted of methanol (solvent A) and 0.05 M phosphate buffer adjusted to pH = 4.5 with phosphoric acid 30% (solvent B) and run in a gradient mode at a flow rate of 1 mL/min.

A short description of data set [2]: Metabolic stability in human liver microsomes (HLMs). Type of data set: in vitro ADME. The method, then: (§1) A series of in vitro ADME-Tox tests were performed for SSR504734 in order to estimate its drugability. The ADME-Tox parameters including permeability, plasma protein binding, metabolic stability, neurotoxicity, and hepatotoxicity were carried out as described previously.[31],[32] The ability of SSR504734 to penetrate through the biological membrane by passive diffusion was estimated by the Gentest Precoated PAMPA Plate System (Corning, Tewksbury, MA) and expressed as the permeability coefficient (Pe). The protein binding analysis was performed by using the commercial TRANSIL^XL PPB test, which mimics in vitro physiological plasma conditions where human serum albumin (HAS) and alpha-1-acid glycoprotein AGP are present in a 24:1 ratio. The human metabolism of SSR504734 was studied using human liver microsomes (HLMs) provided by Sigma-Aldrich. The hepatotoxicity and neurotoxicity were estimated in cellular models with the use of hepatoma HepG2 and neuroblastoma SH-SY5Y cell lines to perform the preliminary safety tests. The cells were incubated with SSR504734 at the concentration range of 0.1–100 μM. 1 μM cytostatic drug doxorubicin (DX) was used as the reference.
(Microsomes from liver hold many membrane-bound enzymes, among them those of drug oxidation.)

A short description of data set [3]: Neurotoxicity, SH-SY5Y cell viability. Type of data set: cell-based. As to conditions: human, neuroblastoma SH-SY5Y cells; 50 μM, 72 h. The method, then:
as §1
(§2) Figure 8 Effect of cytostatic drug doxorubicin (DX) and SSR504734 on (A) hepatoma HepG2 and (B) neuroblastoma SH-SY5Y cell lines viability after 72 h of incubation at 37 °C, 5% CO2. Data are expressed as means ± SD. Statistical analysis: ****p < 0.0001 vs negative control −1% DMSO in growth media (one-way ANOVA, followed by Dunnett’s post hoc test).
(§3) Figure S8. The effect of cytostatic drug doxorubicin and SSR504734 on (A) hepatoma
(§4) HepG2 and (B) neuroblastoma SH-SY5Y cell line viability after 72 h of incubation at 37 °C,
(§5) 5% CO2. The IC50 values were calculated by GraphPad Prism 8.0.
(§6) (1 picture or pasted object on this page, not shown here)

Data set [4] relates to neuroblastoma SH-SY5Y cells. The data set is described as follows: Neurotoxicity, SH-SY5Y cell viability. Type of data set: cell-based. The method, then:
as §1, §2, §3, §4, §5, §6

The mark [5] stands for this setting: acute treatment i.p., nonstimulated (sham) mice.

Each structure is given as a SMILES string. Structures can show the parent of a compound that is named as a salt.

One may read the share remaining as the share of the starting amount still present when the sample was taken. A high value points to greater stability. The viability is a per cent measure of how many cells are alive, often set against a control. Lower therefore signals a greater loss of cells. A word on the IC50: it is the midpoint of a concentration-inhibition curve. A high value points to lower potency. Turning to `O=C(NC(c1ccccc1)C1CCCCN1)c1cccc(C(F)(F)F)c1Cl` [SSR504734, 2-chloro-N-[(S)-phenyl[(2S)-piperidin-2-yl]methyl]-3-trifluoromethyl benzamide monohydrochloride], the “glutamate, GABA, adenosine, glycine concentrations in brain structures” value in data set [1] (14-day treatment, nonstimulated (sham) and MES-stimulated mice) is reported as “No alterations”. Besides, in data set [1] (acute treatment i.p.), the “GABA and glycine concentrations in any of the studied brain regions” value was “did not alter”; the “adenosine concentrations in cortex and hippocampus” value is “no changes”; the “glutamate concentration in cortex and hippocampus” value was “No alterations”. In addition, in data set [1] (acute treatment i.p., mice subjected to the MES test), the “glutamate concentration in the brainstem” value is listed as “no statistically significant changes”. Also, in data set [1] (setting [5]), the “fold decrease of adenosine concentration in the brainstem” value is approximately 2 fold and the “glutamate concentration in the brainstem” value is given as “significant decrease”. Also, the metabolized in data set [2] (120 min incubation with HLMs, UPLC analysis) is given as 5%. The compound further returned an amount remaining at 2 h in data set [2] (after 120 min of incubation with human liver microsomes) of 94.7%. For the same compound, in data set [2] (after incubation with HLMs), the “metabolic pathway, metabolite M1” value is “hydroxylation, oxidation, and dehydrogenation”; the “metabolic pathway, metabolite M2” value is “dehydrogenation”; the “metabolic pathway, metabolite M3” value was “oxidation”. Besides, the viability at 72 h, 50 µM in data set [3] was approximately 30%. For the same compound, the “completely safe dose in the SH-SY5Y model” value in data set [4] (72 h) is 25 µM. Further, in data set [4] (Homo sapiens, SH-SY5Y, 72 h of incubation), the half-maximal inhibitory concentration (IC50) is 38.1 µM.

The values are drawn from article PMC11926788, “Effect of SSR504734, a Selective Glycine Transporter Type 1 Inhibitor, on Seizure Thresholds, Neurotransmitter Levels, and Inflammatory Markers in Mice” (ACS Chemical Neuroscience, 2025).
